Measured values: patent publication US6153614A, “Piperazinyl pyrimidine dione compounds selective for adrenoceptors” (Abbott Laboratories, priority 1998, dated 2000)

Columns and labels:
[1] = biological target: T1, α1b (hamster) adrenoceptor (Mesocricetus auratus, UniProt P18841); assay: Radioligand binding cloned α1b adrenoceptor expressed in LTK cells, [3H]-prazosin; details: LTK cell membranes, [3H]prazosin 0.2 nM
T1 construct: expressed in transfected cells; cDNA from TULCO
T1 sequence (P18841 1-515): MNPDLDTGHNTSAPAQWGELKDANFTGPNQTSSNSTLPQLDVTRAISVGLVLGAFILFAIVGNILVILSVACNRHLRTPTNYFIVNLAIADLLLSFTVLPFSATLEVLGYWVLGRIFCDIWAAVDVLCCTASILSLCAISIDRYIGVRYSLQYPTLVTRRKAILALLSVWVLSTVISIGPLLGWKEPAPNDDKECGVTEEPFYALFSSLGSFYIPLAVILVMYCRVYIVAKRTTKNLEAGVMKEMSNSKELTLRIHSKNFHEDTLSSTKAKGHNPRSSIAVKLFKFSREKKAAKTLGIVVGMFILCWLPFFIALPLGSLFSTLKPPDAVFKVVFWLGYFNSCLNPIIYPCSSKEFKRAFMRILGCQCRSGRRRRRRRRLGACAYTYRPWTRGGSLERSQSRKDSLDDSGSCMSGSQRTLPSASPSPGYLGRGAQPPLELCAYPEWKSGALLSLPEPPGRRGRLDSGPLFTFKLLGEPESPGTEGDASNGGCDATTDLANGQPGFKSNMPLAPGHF
Description: (§1) Representative compounds of the invention were evaluated for α-adrenoceptor binding affinity in vitro using [^3 H]-prazosin as the radioligand and two cloned α1 adrenoceptors expressed in LTK cells: α1b (hamster), and α1d (rat). Additionally, binding affinity against the pharmacologically defined α1A adrenoceptor (rat submaxillary gland) was measured.
(§2) The cDNA clones encoding the α-1 adrenoceptors (α1b and α1d) were obtained from TULCO (Triangle Universities Licensing Consortium, Research Triangle Park, N.C.) and inserted into the eukaryotic expression vector SnaB30. In this vector, expression of the adrenoceptor gene is under the transcriptional control of an SV40 early promoter. Positive drug selection is provided by a neomycin-resistance gene. Mouse fibroblast cells (LTK) were transfected with the α1 expression plasmids and grown in Dulbecco's modified Eagle's medium (DMEM) containing 10% fetal calf serum and […] G418. Stable G418-resistant parental lines were generated and successful expression of adrenoceptor protein was monitored using radioligand binding techniques. Stable single cell clones derived from the parental lines were screened in adrenoceptor binding assays to identify clones having high adrenoceptor density. Roller bottle cultures of the cloned lines were used to provide cell membranes for subsequent adrenoceptor binding characterization studies. A cell line containing the SnaB30 vector expressing the human erythropoietin gene served as a negative control.
For adrenoceptor binding assays, large scale membrane preparations were utilized in which 6 million cells were seeded into small (450 cm^2) Corning tissue culture roller bottles. 200 mL of DMEM containing 10% fetal calf serum and […] G418 were added to each roller bottle. A 95% air/5% CO2 gas mixture (sterile) was injected into each roller bottle prior to sealing. The bottles were incubated at 37° C. on a roller rack for 5 days. Cells were re-fed with fresh medium after 3 days in culture.
On the fifth day of culture, growth medium was removed from cells grown in the roller bottles, and the cells were washed twice with PBS (Sigma, 120 mM NaCl, 2.7 mM KCl, 10 mM Na2 HPO4 --NaH2 PO4, pH=7.4). Cells were detached from the roller bottles by incubating for 15 minutes at 37° C. in a Tris-EDTA solution (10 mM Tris, 100 mM NaCl, 1 mM EDTA, pH=7.4). The cell suspension from each roller bottle was decanted into preweighed centrifuge tubes and kept on ice. An aliquot of each cell suspension was generally taken for cell counting. Cells were centrifuged at 3000×G for 5 min at 2-4° C., washed with PBS and recentrifuged. The supernatant was decanted and the pellet was weighed to determine the wet weight of cells. Cells were washed a final time in 40 vol 5 mM Tris-HCl, 5 mM EDTA, pH=7.7, centrifuged at 40,000×G for 10 minutes, homogenized in 10 mL of 50 mM Tris-HCl, 5 mM EDTA (pH=7.4), and diluted to 40 mL/tube. Homogenates were centrifuged at 40,000×G for 10 minutes. The supernatant was decanted and the pellets were rehomogenized in 50 mM Tris-HCl (pH=7.4) and centrifuged as before.
(§3) Briefly, plastic Bioblocks™ (DBM Scientific, Valencia, Calif.) were incubated at 25° C. for 50 minutes with […] of membrane homogenate (diluted with an additional 96 volumes (for cloned adrenoceptors, 12 volumes for submaxillary gland)) in 50 mM Tris-HCl buffer (pH=7.7 at the time of assay), […] of [^3 H]prazosin (0.2 nM final concentration, 75-85 Ci/mmole, DuPont-NEN Corp., Boston, Mass.), and […] of either water (for total binding) or […] phentolamine (final concentration, for non-specific binding). Following equilibration, bound radioligand was separated from free on GF/B filters (presoaked in 0.5% polyethyleneamine) using either a Brandel or Packard cell harvester. Radioactivity was determined by standard liquid scintillation techniques.

[2] = system: EPI induced increase in canine IUP; assay: In vivo intraurethral pressure (IUP) in canines, inhibition of EPI induced increase; design: species or system Beagle dogs; details: in vivo pseudo pA2 by Schild analysis; antagonist i.v.; epinephrine; propranolol-treated dogs; * (tamsulosin): add 0.4 if slope adjusted to 1
Description: The intraurethral pressure (IUP) model in aged canines is an accepted model of measuring the effect of prostate smooth muscle contraction on urethral tone. Canines also have an enclosed prostate covering the urethral shaft and thus provide an anatomical correlate with humans.
Beagle dogs (Marshall Farms) greater that 2 years of age and weighing between 12 and 15 kg were pre-anesthetized with thiopental sodium 15 mg/kg i.v. (Pentothal™, Abbott Laboratories, Abbott Park, Ill.) then placed under general anesthesia (isoflurane). A 7F Swan-Ganz balloon catheter (Multiflex-list no. 41224-01, Abbott) was lubricated with a water soluble jelly, inserted into the urethral orifice and advanced approximately 40 cm in male dogs (considerably less in females) until the balloon tip was placed well inside the bladder. The balloon was then inflated with 1 mL of room air, and the catheter was slowly withdrawn just past the first resistance that is felt at the bladder neck. Preliminary experiments in which dogs were sacrificed after such placement confirmed that this technique results in consistent positioning of the balloon within the prostatic urethra in males or the corresponding location in females. The balloon port of the catheter was connected to a Gould Statham P23Dd pressure transducer interfaced to a computerized data acquisition system (Modular Instruments, Inc., Malvern, Pa.) for the measurement of intraurethral pressure (IUP).
Dogs were then treated with propranolol to block the β-adrenoceptor agonist effects of test agonists. Dose-response curves of the intraurethral pressor effect of epinephrine (EPI) were obtained before and after each of up to 3 increasing doses of a test antagonist (i.v.). Fifteen minutes were allowed after each antagonist dose for equilibration before the next agonist dose-response was initiated. The increase in IUP caused by a given agonist dose was allowed to return to baseline before the next dose was given. The estimated antagonist dissociation constant (in vivo pseudo pA2) was determined by Schild analysis (Brune, et al., Drug Development Research, 34:267-275 (1995).

[3] = biological target: T2, α1d (rat) adrenoceptor (Rattus norvegicus, UniProt P23944); assay: Radioligand binding cloned α1d adrenoceptor expressed in LTK cells, [3H]-prazosin; details: LTK cell membranes, [3H]prazosin 0.2 nM
T2 construct: expressed in transfected cells; cDNA from TULCO
T2 sequence (P23944 1-561): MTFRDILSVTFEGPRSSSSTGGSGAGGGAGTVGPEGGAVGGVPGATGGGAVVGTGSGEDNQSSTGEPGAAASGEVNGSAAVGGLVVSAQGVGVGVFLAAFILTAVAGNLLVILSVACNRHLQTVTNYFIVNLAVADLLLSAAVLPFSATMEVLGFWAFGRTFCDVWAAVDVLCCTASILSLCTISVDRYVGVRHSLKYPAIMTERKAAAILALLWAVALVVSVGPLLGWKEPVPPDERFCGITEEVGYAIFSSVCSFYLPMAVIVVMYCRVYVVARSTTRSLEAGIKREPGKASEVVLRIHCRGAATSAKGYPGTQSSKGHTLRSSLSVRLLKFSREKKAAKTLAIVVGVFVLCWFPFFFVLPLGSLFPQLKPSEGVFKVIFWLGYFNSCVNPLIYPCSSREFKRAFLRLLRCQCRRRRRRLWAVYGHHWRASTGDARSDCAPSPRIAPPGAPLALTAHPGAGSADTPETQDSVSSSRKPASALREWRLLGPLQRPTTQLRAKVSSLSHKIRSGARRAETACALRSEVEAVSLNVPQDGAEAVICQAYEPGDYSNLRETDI
Description: as §1
as §2, with “A cell line containing the SnaB30 vector expressing the human erythropoietin gene served as a negative control.” left out

[4] = biological target: T3, α1A adrenoceptor (rat submaxillary gland) (Rattus norvegicus, UniProt P43140); assay: Radioligand binding α1A (rat submaxillary gland), [3H]-prazosin
T3 construct: from tissue; host or cells: rat submaxillary gland membranes
T3 sequence (P43140 1-466): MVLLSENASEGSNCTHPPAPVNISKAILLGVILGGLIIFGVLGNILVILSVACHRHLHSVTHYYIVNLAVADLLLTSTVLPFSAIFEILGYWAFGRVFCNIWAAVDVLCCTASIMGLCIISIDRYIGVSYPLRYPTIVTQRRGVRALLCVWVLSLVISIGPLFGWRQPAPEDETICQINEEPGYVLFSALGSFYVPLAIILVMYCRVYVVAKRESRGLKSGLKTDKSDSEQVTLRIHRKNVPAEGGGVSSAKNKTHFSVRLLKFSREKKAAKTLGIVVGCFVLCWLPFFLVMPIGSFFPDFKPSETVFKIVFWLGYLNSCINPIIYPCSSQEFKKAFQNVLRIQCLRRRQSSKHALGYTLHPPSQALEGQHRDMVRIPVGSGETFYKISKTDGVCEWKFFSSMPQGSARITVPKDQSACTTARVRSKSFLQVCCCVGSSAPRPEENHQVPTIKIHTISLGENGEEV
Description: as §1
On the fifth day of culture, growth medium was removed from cells grown in the roller bottles, and the cells were washed twice with PBS (Sigma, 120 mM NaCl, 2.7 mM KCl, 10 mM Na2 HPO4 --NaH2 PO4, pH=7.4). Cells were detached from the roller bottles by incubating for 15 minutes at 37° C. in a Tris-EDTA solution (10 mM Tris, 100 mM NaCl, 1 mM EDTA, pH=7.4). […]
as §3, with “Following equilibration, bound radioligand was separated from free on GF/B filters (presoaked in 0.5% polyethyleneamine) using either a Brandel or Packard cell harvester.” left out

| Ki [1] [nM] | Ki [3] [nM] | SMILES | IUP (pA2) [2] | Ki [4] [nM] |
| --- | --- | --- | --- | --- |
| 1.86 | – | COc1ccccc1N1CCN(CCn2c(=O)[nH]c3sc(-c4ccccc4)cc3c2=O)CC1 [Example 5, 3-[4-(2-methoxyphenyl)piperazinylethyl]-6-phenylthieno[2,3-d]pyrimidine-2,4-dione] | 8.47 | – |
| 2.44 | – | COc1ccccc1N1CCN(CCn2c(=O)[nH]c3sc(C)c(-c4ccccc4)c3c2=O)CC1 [Example 2, 3-[4-(2-methoxyphenyl)piperazinylethyl]-6-methyl-5-phenylthieno[2,3-d]pyrimidine-2,4-dione] | – | – |
| 3.41 | – | COc1ccccc1N1CCN(CCn2c(=O)[nH]c3scc(-c4ccccc4)c3c2=O)CC1 [Example 1, 3-[4-(2-methoxyphenyl)piperazinylethyl]-5-phenylthieno[2,3-d]pyrimidine-2,4-dione] | 7.95 | – |

The next lines start with the compound.

| SMILES | Ki [1] [nM] | Ki [3] [nM] | IUP (pA2) [2] | Ki [4] [nM] |
| --- | --- | --- | --- | --- |
| COc1ccccc1N1CCN(CCn2c(=O)c3c(-c4ccccc4)csc3n(C)c2=O)CC1 [Example 3, 3-[4-(2-methoxyphenyl)piperazinylethyl]-1-methyl-5-phenylthieno[2,3-d]pyrimidine-2,4-dione] | 4.47 | – | – | – |
| COc1ccccc1N1CCN(CCn2c(=O)[nH]c3scc(-c4cccc(C)c4)c3c2=O)CC1 [Example 4, 3-[4-(2-methoxyphenyl)piperazinylethyl]-5-(3-methylphenyl)thieno[2,3-d]pyrimidine-2,4-dione] | 2.74 | – | – | – |
| COc1cc2nc(N3CCN(C(=O)C4CCCO4)CC3)nc(N)c2cc1OC (stereo not drawn) [terazosin, reference compound] | – | 1.01 | 6.97 | – |
| CCOc1ccccc1OCCN[C@H](C)Cc1ccc(OC)c(S(N)(=O)=O)c1 [tamsulosin, reference compound] | 0.204 | – | 8.91 | 0.028 |
